Test results as given in ChEMBL document CHEMBL5325509, “Pyrrolidinedione-thiazolidinone hybrid molecules with potent cytotoxic effect in squamous cell carcinoma SCC-15 cells” (Bioorg Med Chem, 2023).
Calls of active or inactive are those of the source. The calls are words filed in the database; no cut-off is given here.

Legend:
[1] = Upregulation of Caspase-3 activity in human SCC-15 cells at 100 uM measured after 48 hrs in presence of Ac-DEVD-AMC by fluorescence microplate reader analysis; format: functional
[2] = Upregulation of PPARgamma expression in PPARgamma-silenced human SCC-15 cells at 1 uM incubated for 48 hrs Western blot analysis relative to control; format: functional
Leukemic tumor cell line = test: Cytotoxicity against human Leukemic tumor cell line assessed as inhibition of cell growth measured at 72 hrs; format: functional, cell-based
[3] = Downregulation of AHR expression in PPARgamma-silenced human SCC-15 cells at 1 uM incubated for 48 hrs Western blot analysis relative to SiRNA control; format: functional
SCC-15 [4] = test: Cytotoxicity against human SCC-15 cells assessed as LDH release at 1 to 100 uM incubated for 48 hrs relative to control; format: functional; conditions: dose 1-100 µM
[5] = Cytotoxicity against human Cervical carcinoma cell assessed as inhibition of cell growth measured at 72 hrs; format: functional, cell-based
[6] = Downregulation of PCNA expression in PPARgamma-silenced human SCC-15 cells at 1 uM incubated for 48 hrs Western blot analysis relative to siRNA control; format: functional
[7] = Downregulation of AHR mRNA expression in PPARgamma-silenced human SCC-15 cells at 1 uM measured after 24 hrs by RT-PCR analysis; format: functional
Glioblastoma cell line = test: Cytotoxicity against human Glioblastoma cell line assessed as inhibition of cell growth measured at 72 hrs; format: functional, cell-based
SCC-15 [8] = test: Induction of intracellular ROS generation in human SCC-15 cells at 0.001 to 10 uM incubated for 48 hrs by DCFH-DA staining based immunofluorescence analysis; format: functional; conditions: dose 0.001-10 µM
[9] = Cytotoxicity against mouse BALB/3T3 cells assessed reduction in cellular metabolic activity incubated for 24 to 72 hrs by MTT assay; format: toxicity, cell-based
SCC-15 [10] = test: Cytotoxicity against human SCC-15 cells assessed as decrease in cellular metabolic activity at 10 to 100 uM incubated for 48 hrs by resazurin reduction assay relative to control; format: functional; set-up: scale not given: the % may be the effect or the level left; conditions: dose 10-100 µM
[11] = Downregulation of Ki67 expression in PPARgamma-silenced human SCC-15 cells at 1 uM incubated for 48 hrs Western blot analysis relative to siRNA control; format: functional
SCC-15 [12] = test: Induction of intracellular ROS generation in human SCC-15 cells at 0.001 to 100 uM by DCFH-DA staining based immunofluorescence analysis; format: functional, cell-based; conditions: dose 0.001-100 µM, time 24-48 hrs, TDE = time-dependent effect
Breast carcinoma cell = test: Cytotoxicity against human Breast carcinoma cell assessed as inhibition of cell growth measured at 72 hrs; format: functional, cell-based
[13] = Downregulation of PPARgamma mRNA expression in PPARgamma-silenced human SCC-15 cells at 1 uM measured after 24 hrs by RT-PCR analysis; format: functional
[14] = Downregulation of NRFL2 mRNA expression in PPARgamma-silenced human SCC-15 cells at 1 uM measured after 24 hrs by RT-PCR analysis; format: functional
SCC-15 [15] = test: Induction of intracellular ROS generation in human SCC-15 cells at 10 to 100 uM incubated for 48 hrs by DCFH-DA staining based immunofluorescence analysis; format: functional; conditions: dose 10-100 µM
SCC-15 [16] = test: Cytotoxicity against human SCC-15 cells assessed as LDH release at 1 to 100 uM incubated for 24 hrs relative to control; format: functional; conditions: dose 1-100 µM
BALB/3T3 = test: Cytotoxicity against mouse BALB/3T3 cells assessed reduction in cellular metabolic activity at 0.1 to 100 uM incubated for 24 to 72 hrs by MTT assay; format: toxicity, cell-based; conditions: balb/3t3, 100 µM, dose lower 0.1 µM, time lower 24 hrs, dose upper 100 µM, time upper 72 hrs
SCC-15 [17] = test: Induction of intracellular ROS generation in human SCC-15 cells at 0.001 to 10 uM incubated for 24 hrs by DCFH-DA staining based immunofluorescence analysis; format: functional, cell-based; conditions: dose 0.001-10 µM
SCC-15 [18] = test: Cytotoxicity against human SCC-15 cells assessed as LDH release incubated for 48 hrs; format: functional, cell-based; conditions: SCC-15, 48 h
Colon carcinoma cell = test: Cytotoxicity against human Colon carcinoma cell assessed as inhibition of cell growth measured at 72 hrs; format: functional, cell-based
[19] = Downregulation of Ki67 expression in PPARgamma-silenced human SCC-15 cells at 1 uM incubated for 48 hrs Western blot analysis relative to control; format: functional
SCC-15 [20] = test: Cytotoxicity against human SCC-15 cells assessed as decrease in cellular metabolic activity incubated for 48 hrs by resazurin reduction assay; format: functional, cell-based; conditions: SCC-15, 48 h
[21] = Upregulation of NRFL2 mRNA expression in PPARgamma knockdown human SCC-15 cells at 1 uM measured after 24 hrs by RT-PCR analysis; format: functional
[22] = Upregulation of Caspase-3 activity in human SCC-15 cells at 100 uM measured after 24 hrs in presence of Ac-DEVD-AMC by fluorescence microplate reader analysis; format: functional
SCC-15 [23] = test: Induction of intracellular ROS generation in human SCC-15 cells incubated for 24 to 48 hrs by DCFH-DA staining based immunofluorescence analysis; format: functional, cell-based; conditions: dose 0.001-100 µM, time 24-48 hrs
SCC-15 [24] = test: Cytotoxicity against human SCC-15 cells assessed as LDH release incubated for 24 hrs; format: functional, cell-based; conditions: SCC-15, 24 h
SCC-15 [25] = test: Cytotoxicity against human SCC-15 cells assessed as decrease in cellular metabolic activity at 100 uM incubated for 24 hrs by resazurin reduction assay relative to control; format: functional; set-up: scale not given: the % may be the effect or the level left
[26] = Upregulation of Caspase-3 activity in human SCC-15 cells at 50 uM measured after 24 hrs in presence of Ac-DEVD-AMC by fluorescence microplate reader analysis; format: functional
[27] = Downregulation of PPARgamma expression in PPARgamma-silenced human SCC-15 cells at 1 uM incubated for 48 hrs Western blot analysis relative to control; format: functional
SCC-15 [28] = test: Induction of intracellular ROS generation in human SCC-15 cells at 50 to 100 uM incubated for 24 hrs by DCFH-DA staining based immunofluorescence analysis; format: functional; conditions: dose 50-100 µM
[29] = Cytotoxicity against human HaCaT cells assessed reduction in cellular metabolic activity incubated for 24 to 72 hrs by MTT assay; format: toxicity, cell-based
[30] = Upregulation of AHR expression in PPARgamma-silenced human SCC-15 cells at 1 uM incubated for 48 hrs Western blot analysis relative to control; format: functional
HaCaT = test: Cytotoxicity against human HaCaT cells assessed reduction in cellular metabolic activity at 0.1 to 100 uM incubated for 24 to 72 hrs by MTT assay; format: toxicity, cell-based; conditions: dose lower 0.1 µM, time lower 24 hrs, dose upper 100 µM, time upper 72 hrs
SCC-15 [31] = test: Cytotoxicity against human SCC-15 cells assessed as decrease in cellular metabolic activity incubated for 24 hrs by resazurin reduction assay; format: functional, cell-based; conditions: SCC-15, 24 h
[32] = Upregulation of PPARgamma expression in PPARgamma-silenced human SCC-15 cells at 1 uM incubated for 48 hrs Western blot analysis relative to SiRNA control; format: functional
Lung cancer cell line = test: Cytotoxicity against human Lung cancer cell line assessed as inhibition of cell growth measured at 72 hrs; format: functional, cell-based
SCC-15 [33] = test: Cytotoxicity against human SCC-15 cells assessed as LDH release at 50 uM incubated for 48 hrs relative to control; format: functional
SCC-15 [34] = test: Cytotoxicity against human SCC-15 cells assessed as LDH release at 10 uM incubated for 48 hrs relative to control; format: functional
[35] = Downregulation of PPARgamma expression in PPARgamma-silenced human SCC-15 cells at 1 uM incubated for 48 hrs Western blot analysis relative to SiRNA control; format: functional
SCC-15 [36] = test: Induction of intracellular ROS generation in human SCC-15 cells at 50 to 100 uM incubated for 48 hrs by DCFH-DA staining based immunofluorescence analysis; format: functional; conditions: dose 50-100 µM
[37] = Downregulation of NRFL2 mRNA expression in human SCC-15 cells at 1 uM measured after 24 hrs by RT-PCR analysis (reference value: 18.36 %); format: functional
SCC-15 [38] = test: Cytotoxicity against human SCC-15 cells assessed as LDH release at 50 nM incubated for 48 hrs relative to control; format: functional
[39] = Cytotoxicity against human HaCaT cells assessed reduction in cellular metabolic activity incubated for 72 hrs by MTT assay; format: toxicity, cell-based
[40] = Upregulation of Caspase-3 activity in human SCC-15 cells at 50 uM measured after 48 hrs in presence of Ac-DEVD-AMC by fluorescence microplate reader analysis; format: functional
SCC-15 [41] = test: Cytotoxicity against human SCC-15 cells assessed as LDH release at 100 uM incubated for 48 hrs relative to control; format: functional
[42] = Cytotoxicity against mouse BALB/3T3 cells assessed reduction in cellular metabolic activity incubated for 72 hrs by MTT assay; format: toxicity, cell-based
SCC-15 [43] = test: Induction of intracellular ROS generation in human SCC-15 cells at 0.001 to 1 uM incubated for 24 to 48 hrs by DCFH-DA staining based immunofluorescence analysis; format: functional, cell-based; conditions: dose 0.001-1 µM, time 24-48 hrs
SCC-15 [44] = test: Cytotoxicity against human SCC-15 cells assessed as LDH release at 1 uM incubated for 48 hrs relative to control; format: functional
[45] = Downregulation of PCNA expression in PPARgamma-silenced human SCC-15 cells at 1 uM incubated for 48 hrs Western blot analysis relative to control; format: functional
[46] = Downregulation of AHR mRNA expression in human SCC-15 cells at 1 uM measured after 24 hrs by RT-PCR analysis (reference value: 17.30 %); format: functional
[47] = Downregulation of PPARgamma mRNA expression in human SCC-15 cells at 1 uM measured after 24 hrs by RT-PCR analysis (reference value: 79.68 %); format: functional

Compound	Activity [1] [%]	Activity [2] [%]	Activity [3] [%]	Activity [6] [%]	Activity [7] [%]	IC50 [9] [µM]	Activity (SCC-15 [10]) [%]	Activity [11] [%]	Activity (SCC-15 [12])	Activity [13] [%]	Activity [14] [%]	Activity (BALB/3T3)	EC50 (SCC-15 [18]) [µM]	Activity [19] [%]	IC50 (SCC-15 [20]) [µM]	Activity [21] [%]	Activity [22] [%]	Activity (SCC-15 [23])	EC50 (SCC-15 [24]) [µM]	Activity (SCC-15 [25]) [%]	also measured
O=C1CC(N2C(=O)/C(=C/C(Cl)=C/c3ccc([N+](=O)[O-])cc3)SC2=S)C(=O)N1c1ccc(Cl)cc1 (centres undefined)	55.58	23.81	32.59	34.64	9.11	> 100	31.6	44.91	Tde	82.31	30.64	Non-Toxic	10.2	42.01	30.4	12.9	135.01	Dose-Dependent Effect	14.8	34.08	IC50 (Leukemic tumor cell line): 1 µM; Activity (SCC-15 [4]): 49.3%; IC50 [5]: 1 µM; IC50 (Glioblastoma cell line): 1 µM; Activity (SCC-15 [8]): 15.81%; IC50 (Breast carcinoma cell): 1 µM; Activity (SCC-15 [15]): 13.13%; Activity (SCC-15 [16]): 2%; Activity (SCC-15 [17]): inactive; IC50 (Colon carcinoma cell): 1 µM; Activity [26]: 29.03%; Activity [27]: 46.82%; Activity (SCC-15 [28]): 18.64%; IC50 [29]: > 100 µM; Activity [30]: 17.79%; Activity (HaCaT): Non-Toxic; IC50 (SCC-15 [31]): > 100 µM; Activity [32]: 26.46%; IC50 (Lung cancer cell line): 1 µM
O=C1CC(N2C(=O)/C(=C/C(Cl)=C/c3ccc([N+](=O)[O-])cc3)SC2=S)C(=O)N1c1ccc(Br)cc1 (centres undefined)	57.04	11.23	32.23	24.94	10.4	> 100	24.52	39.67	Tde	73.1	26.91	Non-Toxic	16.9	17	39.9	17.1	121.15	Dose-Dependent Effect	15.4	27.07	Activity (SCC-15 [33]): 178.4%; Activity (SCC-15 [34]): 30%; Activity [35]: 18.45%; Activity (SCC-15 [36]): 12%; Activity [37]: 8.55%; Activity (SCC-15 [38]): 2%; IC50 at 72 h [39]: 83.6 µM; Activity [40]: 21.08%; Activity (SCC-15 [41]): 328%; IC50 at 72 h [42]: 85.2 µM; Activity (SCC-15 [43]): inactive; Activity (SCC-15 [44]): 1.2%; Activity [26]: 42.87%; Activity [27]: 14.43%; IC50 [29]: > 100 µM; Activity [45]: 12.74%; Activity (HaCaT): Non-Toxic; Activity [46]: 11.84%; IC50 (SCC-15 [31]): > 100 µM; Activity [47]: 12.29%
